Experimental data from patent US20090163571A1, “PHARMACEUTICAL FOR USE IN THE TREATMENT OF URETEROLITHIASIS” (KISSEI PHARMACEUTICAL CO., LTD, priority 2005, published 2009).
Counter-ions that a name gives are not always drawn.

Experiments:
[1] = anesthetized dogs; compared with the compound of general formula (I); cited from earlier work
isolated hamster ureter = test: Inhibition of phenylephrine-induced contraction of isolated hamster ureter (organ bath); settings: for pA2: against phenylephrine concentration-response curve

Structure (SMILES) | decrease of blood pressure [1] | pA2 (isolated hamster ureter) | inhibitory effect against phenylephrine induced ureteral contraction (shift of concentration-response curve) (isolated hamster ureter; 3×10^−10, 1×10^−9, 3×10^−9 mol/L, about 30 min pretreatment)
CCOc1ccccc1OCCN[C@H](C)Cc1ccc(OC)c(S(N)(=O)=O)c1 [tamsulosin hydrochloride] | decreases blood pressure more strongly than the compound represented by the above general formula (I) | 9.85 | –
COc1ccccc1N1CCN(CCN2C(=O)CC3(CCCC3)CC2=O)CC1 [BMY-7378] | – | 5.75 | –
C[C@H](Cc1cc2c(c(C(N)=O)c1)N(CCCO)CC2)NCCOc1ccccc1OCC(F)(F)F [Compound 1, (−)-1-(3-hydroxypropyl)-5-((2R)-2-{[2-((2-[(2,2,2-trifluoroethyl)oxy]phenyl)oxy)ethyl]amino}propyl)-2,3-dihydro-1H-indole-7-carboxamide] | – | 9.44 | caused concentration-dependently a parallel rightward shift of the concentration-response curve for phenylephrine
COc1ccccc1N1CCN(CC(O)COc2cccc3ccccc23)CC1 (stereo not drawn) [naftopidil] | – | 6.54 | –
